{"source": "paper PMC9965614", "about": "“Computer-Aided Virtual Screening and In Vitro Validation of Biomimetic Tyrosinase Inhibitory Peptides from Abalone Peptidome” (International Journal of Molecular Sciences, 2023)", "key": {"B16F10 melanoma cells": {"test_system": "B16F10 melanoma cells", "assay": "Melanin content assay in UV-induced B16F10 cells", "assay_type": "cell-based, murine", "conditions": "70 μM peptide, UVA/UVB-induced B16F10 cells, triplicate", "description": "Cellular melanin content was measured using a modified method by Jegal, et al.. B16F10 cells were seeded at 5 × 10^5 cells/mL in 24-well plates. […] After that, the cells in each well were washed and replaced by PBS. The UV stimulation process was performed by the exposure to UVA (314-400 nm, 3.0 W) and UVB (280-315 nm, 13.6 W) for 22 s. Then, PBS was replaced with media and further incubated for 24 h. The UV-stimulated cells were then trypsinized and centrifuged at 1500 rpm for 5 min. The cell pellet was then dissolved in 2 M NaOH at 60 °C for 1 h to solubilize the melanin. The melanin content was estimated by measuring the absorbance at 405 nm. The melanin content was calculated with the following equation: % Melanin content=(S)/(C)×100, where, S is the OD405 of sample and C represents the OD405 of control. All experiments were performed in triplicate."}, "[1]": {"test_system": "glutathione peroxidase (GPx)", "assay": "Antioxidative enzyme activity, glutathione peroxidase (assay kit)", "assay_type": "cell-based, murine", "conditions": "70 μM, UV-exposed B16F10 cells", "description": "(§1) To determine the antioxidant activity, the centrifugation precipitate from Section 4.6 was dissolved in 1 mL of 1 M NaOH containing 10% DMSO at 80 °C for 1 h. Various assay kits, all from Beijing Solarbio Science & Technology Co., Ltd., Beijing, China, were used to measure the quantity of reduced reactive oxygen species (ROS) and the activity of superoxide dismutase (SOD), catalase (CAT), and glutathione peroxidase (GPx) according to the methods by Hu et al.."}, "cellular tyrosinase": {"target": "T1, cellular tyrosinase (Mus musculus, UniProt P11344)", "T1 construct": "the harvested cells were lysed in cell extraction buffer; endogenous in cells; host or cells: B16F10 murine melanoma cells, UVA/UVB-induced", "T1 sequence (P11344 19-533)": "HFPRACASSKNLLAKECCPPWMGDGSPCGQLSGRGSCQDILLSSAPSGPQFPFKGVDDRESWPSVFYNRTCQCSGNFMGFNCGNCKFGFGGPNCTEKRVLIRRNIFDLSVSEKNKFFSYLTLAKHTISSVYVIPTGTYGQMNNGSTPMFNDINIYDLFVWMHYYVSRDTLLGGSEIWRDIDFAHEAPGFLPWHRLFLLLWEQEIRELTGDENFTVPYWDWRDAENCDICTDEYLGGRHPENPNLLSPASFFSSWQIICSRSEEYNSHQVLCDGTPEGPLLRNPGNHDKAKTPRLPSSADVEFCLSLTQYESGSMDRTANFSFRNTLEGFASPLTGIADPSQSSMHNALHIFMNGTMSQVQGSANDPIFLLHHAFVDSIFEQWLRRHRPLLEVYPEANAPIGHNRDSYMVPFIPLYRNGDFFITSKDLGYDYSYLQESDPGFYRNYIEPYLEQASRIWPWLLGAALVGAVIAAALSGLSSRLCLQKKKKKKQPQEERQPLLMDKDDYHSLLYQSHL", "assay": "Intracellular (cellular) tyrosinase activity assay in UV-induced B16F10 cells", "assay_type": "cell-based, murine", "conditions": "70 μM peptide, UVA/UVB-induced B16F10 cells, triplicate", "description": "Tyrosinase activity was measured based on Dopa oxidase activity by estimating the dopachrome production according to the method by Qiao et al., 2012 [54], with some modifications. B16F10 cells were seeded at 5 × 10^6 cells/mL in 24-well plates. […] Each well was then washed and replaced with PBS 600 μL and induced with UVA (314-400 nm, 3.0 W) and UVB (280-315 nm, 13.6 W) using OSRAM (Ultra-Vitalux, Germany) for 22 s (0.32 J/cm^2). After that, the cells were incubated with medium 600 μL/well for a further 24 h. Then, the cells were trypsinized and the harvested cells were lysed in cell extraction buffer. After normalized protein concentration, 10 μL of each lysate supernatant was aliquoted into a 96-well plate and shaking incubated in dark conditions with 1 mM L-DOPA 90 μL in PBS at 37 °C at 280 rpm for 10 min. The absorbance was measured at 475 nm and all experiments were performed in triplicate to determine the IC50 of the samples. The cellular tyrosinase inhibitory activity was calculated with the following equation: % Cellular tyrosinase inhibition=[(C)-(S)/(C)]×100, where, C are defined as in the previous section."}, "tyrosinase [2]": {"test_system": "tyrosinase", "conditions": "RF machine learning model, 425 sequence features; cited from earlier work", "text": "(§2) Table 1 Abalone predicted TIPs by KNN and RF-based predictors and the predicted antioxidant scores by AnOxPePred 1.0 program. | column: Predicted Anti-Tyrosinase Probability / RF Predictor || Previously, our research team proposed the in-house machine learning-based anti-tyrosinase prediction tool, which provides thousands of potential peptides. The probability scores of all 1079 peptides from KNN-based and RF-based models can be found in the supplementary file of the previous article by Kongsompong et al.. The KNN and RF predictors were trained and tested against 133 peptides with known anti-tyrosinase properties with 97% and 99% accuracy. The predictions of both models were based on the numeric matrix of 425 features calculated from amino acid composition (20 featur ..."}, "[3]": {"test_system": "superoxide dismutase (SOD)", "assay": "Antioxidative enzyme activity, superoxide dismutase (assay kit)", "assay_type": "cell-based, murine", "conditions": "70 μM, UV-exposed B16F10 cells", "description": "as §1"}, "tyrosinase [4]": {"test_system": "tyrosinase", "conditions": "KNN machine learning model, 425 sequence features; cited from earlier work", "text": "as §2, with “/ KNN” for “/ RF”"}, "mushroom tyrosinase": {"target": "mushroom tyrosinase (Agaricus bisporus, UniProt C7FF04)", "sequence (C7FF04 1-392)": "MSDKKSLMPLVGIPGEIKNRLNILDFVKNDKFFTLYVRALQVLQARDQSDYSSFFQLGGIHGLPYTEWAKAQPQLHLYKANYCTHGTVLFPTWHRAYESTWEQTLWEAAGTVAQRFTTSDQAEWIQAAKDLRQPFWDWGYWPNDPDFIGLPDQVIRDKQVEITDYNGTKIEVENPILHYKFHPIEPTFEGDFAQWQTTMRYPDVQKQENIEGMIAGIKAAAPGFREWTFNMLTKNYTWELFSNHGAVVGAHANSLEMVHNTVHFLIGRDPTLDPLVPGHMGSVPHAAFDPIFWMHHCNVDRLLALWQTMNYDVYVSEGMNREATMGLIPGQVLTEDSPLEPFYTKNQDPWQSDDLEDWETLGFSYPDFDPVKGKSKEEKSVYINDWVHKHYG", "sequence (G1K3P4 1-150 partner)": "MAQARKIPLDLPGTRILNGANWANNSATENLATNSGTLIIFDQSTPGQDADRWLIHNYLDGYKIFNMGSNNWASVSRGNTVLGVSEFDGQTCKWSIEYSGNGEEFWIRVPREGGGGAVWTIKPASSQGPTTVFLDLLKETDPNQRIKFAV", "assay": "Mushroom tyrosinase activity assay (L-DOPA oxidation, diphenolase)", "assay_type": "biochemical", "conditions": "L-DOPA substrate, up to 500 μM", "description": "The inhibitory effect on mushroom tyrosinase was determined spectrophotometrically via L-DOPA oxidation. The reaction mixture consisted of 20 μL of hdTIPs, 140 μL of 100 mM sodium phosphate buffer (pH6.8) and 40 μL of 200 units/mL mushroom tyrosinase (EC 1.14.18.1; Sigma, Saint Louis, USA) placed in a 96-well microplate, then incubated for 10 min. After that, 20 μL of 5mM L-DOPA were mixed into each well over 20 min. Furthermore, the amount of dopachrome produced absorbance was measured at 475 nm. In addition, KA was used as the positive control at the same concentrations and conditions to hdTIPs. This method was modified from Kim et al..\nThe mushroom tyrosinase inhibitory activity was calculated with the following equation: % Mushroom tyrosinase inhibition=[(C)−(S)/(C)]×100, where, C represents the OD475 of control and S is the OD475 of sample. All experiments were performed in triplicate to determine the IC50 of the samples."}}, "note": "Where a SMILES comes first, the peptide text is derived from it.", "data": [{"smiles": "CSCC[C@H](NC(=O)[C@H](CCC(N)=O)NC(=O)[C@H](CO)NC(=O)[C@@H](N)[C@@H](C)O)C(=O)N[C@@H](CO)C(=O)N[C@@H](CCCNC(=N)N)C(=O)N[C@@H](CO)C(=O)N[C@@H](CO)C(=O)N[C@@H](CO)C(=O)N[C@@H](CCCNC(=N)N)C(=O)O", "note": "[KNN2] (H-TSQMSRSSSR-OH; N-terminus and C-terminus assumed)", "values": [{"measurement": "inhibition of melanin content", "setting": "B16F10 melanoma cells", "result": "fourth-most-effective inhibitor"}, {"measurement": "effect on GPx activity", "setting": "[1]", "result": "elevated"}, {"measurement": "inhibition of cellular tyrosinase", "setting": "cellular tyrosinase", "result": "fourth-most-effective inhibitor"}, {"measurement": "Predicted Anti-Tyrosinase Probability RF Predictor", "setting": "tyrosinase [2]", "result": 0.37}, {"measurement": "effect on SOD activity", "setting": "[3]", "result": "elevated"}, {"measurement": "Predicted Anti-Tyrosinase Probability KNN Predictor", "setting": "tyrosinase [4]", "result": 1.00}, {"measurement": "inhibitory effect on mushroom tyrosinase (diphenolase activity)", "setting": "mushroom tyrosinase", "result": "did not show any inhibition"}]}]}
